Source: patent US9296732B2, “Substituted benzamides and their uses” (The Board of Trustees of the Leland Stanford Junior …, priority 2012, dated 2016)

Legend:
RCC4/VHL = assay: XTT cell viability assay, RCC4 with VHL-reintroduced (RCC4/VHL) versus RCC4, selectivity ratio; assay type: cell-based; settings: for Ratio (IC50 RCC4 Proficient VHL)/IC50 RCC4 Deficient VHL): second TABLE 1 (Examples 39-55); for Ratio = IC50RCC4/VHL/IC50RCC4: first TABLE 1 (II series)
Experimental: (§1) RCC4 parental and RCC4 with VHL-reintroduced (RCC4/VHL), SN12C and SN12C-CSCG-VHL shRNA were maintained in DMEM supplemented with 10% FCS.
(§2) For 2,3-bis[2-methoxy-4-nitro-5-sulfophenyl]-2H-tetrazolium-5-carboxanilide (XTT) assays, five thousand cells were plated in 96-well plates. The next day, vehicle (DMSO) or drug was added by serial dilution. Four days later, media were aspirated, XTT solution (0.3 mg/ml of XTT (Sigma), 2.65 mg/ml N-methyl dibenxopyrazine methyl sulfate (Simga) in phenol red-free media) was added, and the plates were incubated at 37° C. for 1-2 hours. Metabolism of XTT was quantified by measuring the absorbance at 450 nm. IC50s were calculated using linear interpolation. For clonogenic survival assays, three hundred cells were plated per 60 mm tissue culture dish. The cells were allowed to attach overnight and then treated with vehicle or drug for 14 days. Colonies were fixed and stained with crystal violet (0.1% crystal violet in 95% ethanol). All conditions were measured in triplicate and each experiment was done in duplicate or triplicate. To determine necrosis, cells were treated with drug for a given time point. Media and cells were collected, centrifugated, and resuspended in 0.4% trypan blue (Invitrogen). Live and dead cells were counted on a hematocytometer.
(§3) The designation A reflects an IC50 of <1 nM; B reflects an IC50 ranging from 1 to 20 nM; and C is an IC50 of >20 nM. The designation “a” reflects a ratio of RCC4/RCC-VHL+ ranging from 1 to ≦10; “b” reflects from 10 to ≦100; “c” reflects a ratio of >100. Compounds 1-29 have an IC50 value of ≦10 μM when tested in the above assay.

RCC4 = assay: XTT cell viability assay in RCC4 parental (VHL-deficient) cells; assay type: cell-based; settings: four days with drug, second TABLE 1 (Examples 39-55)
Experimental: as §1, §2, §3

SMILES	Ratio (IC50 RCC4 Proficient VHL)/IC50 RCC4 Deficient VHL) (RCC4/VHL)	also measured
Cc1oc(-c2ccc(C(=O)NCc3cccnc3)cc2)nc1CS(=O)(=O)[C@H]1CC[C@H](N)CC1 [Example 44, 4-(4-[[(4-Aminocyclohexane)sulfonyl]methyl]-5-methyl-1,3-oxazol-2-yl)-N-(pyridin-3-ylmethyl)benzamide]	b (from 10 to ≦100)	–
Cc1oc(-c2ccc(C(=O)NCc3cccnc3)cc2)nc1CS(=O)(=O)[C@H]1CC[C@H](N2CCCC2)CC1 [Example 45]	b (from 10 to ≦100)	–
Cc1oc(-c2ccc(C(=O)NCc3cccnc3)cc2)nc1CS(=O)(=O)[C@H]1CC[C@H](N2CCCC2)C1 [Example 48]	b (from 10 to ≦100)	–
O=C(Nc1cccnc1)c1ccc(CNS(=O)(=O)c2ccsc2)cc1 [II-5, N-(3-Pyridinyl)-4-{[(3-thienylsulfonyl)amino]methyl}benzamide]	–	Ratio = IC50RCC4/VHL/IC50RCC4 (RCC4/VHL): a (a ratio of RCC4/RCC-VHL+ ranging from 1 to ≦10)
O=C(Nc1cccnc1)c1ccc(CNS(=O)(=O)c2ccc(Oc3ccccc3)nc2)cc1 [II-3, 4-({[(6-Phenoxy-3-pyridinyl)sulfonyl]amino}methyl)-N-(3-pyridinyl)benzamide]	–	Ratio = IC50RCC4/VHL/IC50RCC4 (RCC4/VHL): a (a ratio of RCC4/RCC-VHL+ ranging from 1 to ≦10)
Cc1oc(-c2ccc(C(=O)NCc3cccnc3)cc2)nc1CS(=O)(=O)[C@H]1CC[C@H](N2CCCCC2)CC1 [Example 46]	b (from 10 to ≦100)	–
Cc1oc(-c2ccc(C(=O)NCc3cccnc3)cc2)nc1CS(=O)(=O)[C@H]1CC[C@H](N)C1 [Example 47]	b (from 10 to ≦100)	–
Cc1oc(-c2ccc(C(=O)NCc3cccnc3)cc2)nc1CS(=O)(=O)[C@H]1CC[C@@H](N2CCCC2)CC1 [Example 42]	b (from 10 to ≦100)	–
Cc1oc(-c2ccc(C(=O)NCc3cccnc3)cc2)nc1CS(=O)(=O)C1CCN(C)CC1 [Example 40, 4-(5-Methyl-4-((1-methylpiperidin-4-ylsulfonyl)methyl)oxazol-2-yl)-N-(pyridin-3-ylmethyl)benzamide]	b (from 10 to ≦100)	–
O=C(Nc1cccnc1)c1ccc(CNS(=O)(=O)c2cccnc2)cc1 [II-1, N-(3-Pyridinyl)-4-{[(3-pyridylsulfonyl)amino]methyl}benzamide]	–	Ratio = IC50RCC4/VHL/IC50RCC4 (RCC4/VHL): a (a ratio of RCC4/RCC-VHL+ ranging from 1 to ≦10)
Cc1oc(-c2ccc(C(=O)NCc3cccnc3)cc2)nc1CS(=O)(=O)[C@@H]1CC[C@H](N2CCCC2)C1 [Example 51]	b (from 10 to ≦100)	–
Cc1oc(-c2ccc(C(=O)NCc3cccnc3)cc2)nc1CS(=O)(=O)[C@@H]1CC[C@H](N2CCCCC2)C1 [Example 52]	a (a ratio of RCC4/RCC-VHL+ ranging from 1 to ≦10)	–
Cc1oc(-c2ccc(C(=O)NCc3cccnc3)cc2)nc1CS(=O)(=O)C1CCNCC1 [Example 39, 4-(5-Methyl-4-((piperidin-4-ylsulfonyl)methyl)oxazol-2-yl)-N-(pyridin-3-ylmethyl)benzamide]	b (from 10 to ≦100)	–
O=C(Nc1cccnc1)c1ccc(CNS(=O)(=O)c2cccs2)cc1 [II-4, N-(3-Pyridinyl)-4-{[(2-thienylsulfonyl)amino]methyl}benzamide]	–	Ratio = IC50RCC4/VHL/IC50RCC4 (RCC4/VHL): a (a ratio of RCC4/RCC-VHL+ ranging from 1 to ≦10)
Cc1oc(-c2ccc(C(=O)NCc3cccnc3)cc2)nc1CS(=O)(=O)[C@H]1CC[C@@H](N)CC1 [Example 41, 4-(4-(((1s,4s)-4-aminocyclohexylsulfonyl)methyl)-5-methyloxazol-2-yl)-N-(pyridin-3-ylmethyl)benzamide]	b (from 10 to ≦100)	IC50 (RCC4): > 20 nM
Cc1oc(-c2ccc(C(=O)NCc3cccnc3)cc2)nc1CS(=O)(=O)C1CCN(CC(C)C)CC1 [Example 53, 4-(5-methyl-4-[[1-(2-methylpropyl)piperidine-4-sulfonyl]methyl]-1,3-oxazol-2-yl)-N-(pyridin-3-ylmethyl)benzamide]	a (a ratio of RCC4/RCC-VHL+ ranging from 1 to ≦10)	–
Cc1oc(-c2ccc(C(=O)NCc3cccnc3)cc2)nc1CS(=O)(=O)[C@H]1CC[C@@H](N2CCCCC2)CC1 [Example 43]	b (from 10 to ≦100)	–
Cc1oc(-c2ccc(C(=O)NCc3cccnc3)cc2)nc1CS(=O)(=O)C1CCN(C2CCCCC2)CC1 [Example 55]	a (a ratio of RCC4/RCC-VHL+ ranging from 1 to ≦10)	IC50 (RCC4; Homo sapiens, 96 h): < 1 nM
Cc1oc(-c2ccc(C(=O)NCc3cccnc3)cc2)nc1CS(=O)(=O)[C@@H]1CC[C@H](N)C1 [Example 50]	b (from 10 to ≦100)	–
O=C(Nc1cccnc1)c1ccc(CNS(=O)(=O)c2ccco2)cc1 [II-8, N-(3-Pyridinyl)-4-{[(2-furanylsulfonyl)amino]methyl}benzamide]	–	Ratio = IC50RCC4/VHL/IC50RCC4 (RCC4/VHL): a (a ratio of RCC4/RCC-VHL+ ranging from 1 to ≦10)
Cc1ccc(S(=O)(=O)Cc2nc(-c3ccc(C(=O)NCc4ccncc4)cc3)oc2C)cc1 [Example 6, 4-(5-Methyl-4-{[(4-methylphenyl)sulfonyl]methyl}-1,3-oxazol-2-yl)-N-(4-pyridinylmethyl)benzamide]	–	melting point: 169 to 172 °C
Cc1oc(-c2ccc(C(=O)NCc3cccnc3)cc2)nc1CS(=O)(=O)[C@H]1CC[C@H](N2CCCCC2)C1 [Example 49]	b (from 10 to ≦100)	IC50 (RCC4; Homo sapiens, 96 h): < 1 nM
Cc1oc(-c2ccc(C(=O)NCc3cccnc3)cc2)nc1CS(=O)(=O)C1CCN(C2CCCC2)CC1 [Example 54]	b (from 10 to ≦100)	–
Cc1ccc(S(=O)(=O)Cc2nc(-c3ccc(C(=O)N(C)c4cccnc4)cc3)oc2C)cc1 [Example 3, N-Methyl-4-(5-methyl-4-{[(4-methylphenyl)sulfonyl]methyl}-1,3-oxazol-2-yl)-N-(3-pyridinyl)benzamide]	–	melting point: 195 to 197 °C
